From patent US20240400564A1 (Syndax Pharmaceuticals, Inc, priority 2021, published 2024)

System: MLLr leukemia cell line MV4-11
Test: Cell proliferation assay MV4;11 (CellTiter-Glo, 72 hours)
Type: cell-based
Conditions: Homo sapiens; MV4-11 cells, 72 hours, CellTiter-Glo; read-out: MV4; 11 IC50
Experimental: Compounds were evaluated for its capacity to inhibit the proliferation of the MLLr leukemia cell line MV4-11 that harbors an MLL1-AF4 fusion protein. MV4-11 cells were cultured for 72 hours with limiting dilutions of compounds and viability was measured using CellTiter-Glo.
Compounds were dissolved to obtain as 10 mM solution in DMSO. The stock was diluted 1:5 to the top concentration of 2 mM in 100% DMSO. For IC50 determination, serial 1:3.16 dilutions were prepared in 100% DMSO by diluting 20 μL into 43.5 μL of DMSO for 8 concentrations. Each prepared DMSO solution were further diluted 1:500 in the cell culture media to obtain the 2× dosing solutions. The final concentrations of tested compounds in the cell culture media ranged from 0.632 nM to 2000 nM.
MV4-11 cells were cultured in IMDM with 10% FBS and 1× Penicillin-Streptomycin at 5% CO2 and 37° C. A cell suspension was prepared containing 15,000 cells/ml in the culture medium and 100 μL of this suspension was added per well to a 96-well cell culture plate. Then, 100 μL of 2× dosing media containing test compounds were added bringing the total volume to 200 μL. These cells were cultured for 72 hours at 37° C. and 5% CO2 in a humidified incubator.
After 72 hours, the cultured cells were mixed and 100 μL was transferred to a 96-well black plate. Cell Titer Glo (100 μl) was then added to this plate. The plate was mixed with shaking for 15 mins at RT, the luminescence was then measured using Tecan Spark 20M spectrophotometer. Cell Viability (%) was determined by RLU of test/RLU average vehicle control*100 and % max inhibition was determined by 100−(% cell viability remaining at the top concentration of compound).

An IC50 of 100 to 1000 nM was found for `CCS(=O)(=O)N[C@@H]1CC[C@@H](CN2CCC3(CC2)CN(c2ncncc2Oc2ccc(F)cc2C(=O)N(C(C)C)[C@H]2CC[C@@H]2O)C3)OC1` (single isomer, unassigned) [Example 257] in this work.

For `CCn1cc(S(=O)(=O)N[C@@H]2CC[C@@H](CN3CCC4(CC3)CN(c3ncncc3Oc3ccc(F)cc3C(=O)N(CC(F)F)C(C)C)C4)OC2)cn1` [Example 106, N-(2,2-Difluoroethyl)-2-((4-(7-(((2S,5R)-5-((1-ethyl-1H-pyrazole)-4-sulfonamido)tetrahydro-2H-pyran-2-yl)methyl)-2,7-diazaspiro[3.5]nonan-2-yl)pyrimidin-5-yl)oxy)-5-fluoro-N-isopropylbenzamide], the IC50 was < 100 nM.

`CC(C)N(C(=O)c1cc(F)ccc1Oc1nncnc1N1CC2(CCN(C[C@@H]3CC[C@@H](NS(=O)(=O)c4cnn(C)c4)CO3)CC2)C1)C(C)C` [Example 197, 5-Fluoro-N,N-diisopropyl-2-((5-(7-(((2S,5R)-5-((1-methyl-1H-pyrazole)-4-sulfonamido)tetrahydro-2H-pyran-2-yl)methyl)-2,7-diazaspiro[3.5]nonan-2-yl)-1,2,4-triazin-6-yl)oxy)benzamide] was tested, and the IC50 was < 100 nM.

For `CC(C)N(C(=O)c1cc(F)ccc1Oc1cncnc1N1CC2(CCN(C[C@@H]3CC[C@@H](NS(=O)(=O)c4ccc(=O)n(C)c4)CO3)CC2)C1)C(C)C` [Example 92, 5-Fluoro-N,N-diisopropyl-2-((4-(7-(((2S,5R)-5-((1-methyl-6-oxo-1,6-dihydropyridine)-3-sulfonamido)tetrahydro-2H-pyran-2-yl)methyl)-2,7-diazaspiro[3.5]nonan-2-yl)pyrimidin-5-yl)oxy)benzamide], the IC50 was < 100 nM.

An IC50 of 100 to 1000 nM was found for `CCS(=O)(=O)N[C@@H]1CC[C@@H](CN2CCC3(CC2)CN(c2ncncc2Oc2ccc(F)cc2C(=O)N(C(C)C)[C@H]2[C@@H]4COC[C@@H]42)C3)OC1` [Example 253, N-((1R,5S,6r)-3-Oxabicyclo[3.1.0]hexan-6-yl)-2-((4-(7-(((2S,5R)-5-(ethylsulfonamido)tetrahydro-2H-pyran-2-yl)methyl)-2,7-diazaspiro[3.5]nonan-2-yl)pyrimidin-5-yl)oxy)-5-fluoro-N-isopropylbenzamide] in this work.

For `Cc1ncc(S(=O)(=O)N[C@@H]2CC[C@@H](CN3CCC4(CC3)CN(c3ncncc3Oc3ccc(F)cc3C(=O)N(C(C)C)C(C)C)C4)OC2)[nH]1` [Example 234, 5-Fluoro-N,N-diisopropyl-2-((4-(7-(((2S,5R)-5-((2-methyl-1H-imidazole)-5-sulfonamido)tetrahydro-2H-pyran-2-yl)methyl)-2,7-diazaspiro[3.5]nonan-2-yl)pyrimidin-5-yl)oxy)benzamide], the IC50 was < 100 nM.

`CC(C)N(C)C(=O)c1cc(F)ccc1Oc1cncnc1N1CC2(CCN(C[C@@H]3CC[C@@H](NS(=O)(=O)c4ccn(C)n4)CO3)CC2)C1` [Example 53, Fluoro-N-isopropyl-N-methyl-2-((4-(7-(((2S,5R)-5-((1-methyl-1H-pyrazole)-3-sulfonamido)tetrahydro-2H-pyran-2-yl)methyl)-2,7-diazaspiro[3.5]nonan-2-yl)pyrimidin-5-yl)oxy)benzamide] was tested, and the IC50 was < 100 nM.

For `CC(C)N(CC(F)(F)F)C(=O)c1cc(F)ccc1Oc1nncnc1N1CC2(CCN(C[C@@H]3CC[C@@H](NS(=O)(=O)c4cnn(C)c4)CO3)CC2)C1` [Example 192, 5-Fluoro-N-isopropyl-2-((5-(7-(((2R,5S)-5-((1-methyl-1H-pyrazole)-4-sulfonamido)tetrahydro-2H-pyran-2-yl)methyl)-2,7-diazaspiro[3.5]nonan-2-yl)-1,2,4-triazin-6-yl)oxy)-N-(2,2,2-trifluoroethyl)benzamide], the IC50 was < 100 nM.

`CC(C)N(CC(F)F)C(=O)c1cc(F)ccc1Oc1cncnc1N1CC2(CCN(C[C@@H]3CC[C@@H](NS(=O)(=O)N(C)CCOCc4ccccc4)CO3)CC2)C1` [Example 238] was tested, and the IC50 was < 100 nM.

In the case of `COC[C@@H]1CCCN1S(=O)(=O)N[C@@H]1CC[C@@H](CN2CCC3(CC2)CN(c2ncncc2Oc2ccc(F)cc2C(=O)N(C(C)C)C(C)C)C3)OC1` [Example 213, 5-Fluoro-N,N-diisopropyl-2-((4-(7-(((2S,5R)-5-(((S)-2-(methoxymethyl)pyrrolidine)-1-sulfonamido)tetrahydro-2H-pyran-2-yl)methyl)-2,7-diazaspiro[3.5]nonan-2-yl)pyrimidin-5-yl)oxy)benzamide], the IC50 is reported as < 100 nM.

`CC(C)N(C(=O)c1cc(F)ccc1Oc1cncnc1N1CC2(CCN(C[C@@H]3CC[C@@H](NS(=O)(=O)N4CCC[C@@H]4C)CO3)CC2)C1)[C@@H]1CCOC1` [Example 205, 5-Fluoro-N-isopropyl-2-((4-(7-(((2S,5R)-5-(((S)-2-methylpyrrolidine)-1-sulfonamido)tetrahydro-2H-pyran-2-yl)methyl)-2,7-diazaspiro[3.5]nonan-2-yl)pyrimidin-5-yl)oxy)-N-((R)-tetrahydrofuran-3-yl)benzamide] was tested, and the IC50 was < 100 nM.

An IC50 of 100 to 1000 nM was found for `CC(C)N(C)C(=O)c1cc(F)ccc1Oc1cncnc1N1CC2(CCN(C[C@@H]3CC[C@@H](NS(=O)(=O)c4cnn(C)c4)CO3)CC2)C1` [Example 139, 5-Fluoro-N-isopropyl-N-methyl-2-((4-(7-(((2S,5R)-5-((1-methyl-1H-pyrazole)-4-sulfonamido)tetrahydro-2H-pyran-2-yl)methyl)-2,7-diazaspiro[3.5]nonan-2-yl)pyrimidin-5-yl)oxy)benzamide] in this work.

`CC(C)N(C(=O)c1cc(F)ccc1Oc1cncnc1N1CC2(CCN(C[C@@H]3CC[C@@H](NS(=O)(=O)N4CCC[C@@H]4C)CO3)CC2)C1)C1CCOC1` (stereo partly drawn) [Example 206, 5-Fluoro-N-isopropyl-2-((4-(7-(((2S,5R)-5-(((S)-2-methylpyrrolidine)-1-sulfonamido)tetrahydro-2H-pyran-2-yl)methyl)-2,7-diazaspiro[3.5]nonan-2-yl)pyrimidin-5-yl)oxy)-N-((S)-tetrahydrofuran-3-yl)benzamide] was tested, and the IC50 was < 100 nM.

`CCN(C(=O)c1cc(F)ccc1Oc1cncnc1N1CC2(CCN(C[C@@H]3CC[C@@H](NS(=O)(=O)N4CC(F)(F)C4)CO3)CC2)C1)C(C)C` [Example 70, 2-((4-(7-(((2S,5R)-5-((3,3-Difluoroazetidine)-1-sulfonamido)tetrahydro-2H-pyran-2-yl)methyl)-2,7-diazaspiro[3.5]nonan-2-yl)pyrimidin-5-yl)oxy)-N-ethyl-5-fluoro-N-isopropylbenzamide] was tested, and the IC50 was < 100 nM.

In the case of `CCS(=O)(=O)N[C@@H]1CC[C@@H](CN2CCC3(CC2)CN(c2ncncc2Oc2ccc(F)cc2C(=O)N(C(C)C)[C@@H]2CC[C@H]2O)C3)OC1` (single isomer, unassigned) [Example 256], the IC50 is reported as < 100 nM.

An IC50 of 100 to 1000 nM was found for `CN=S(=O)(N[C@@H]1CC[C@@H](CN2CCC3(CC2)CN(c2ncncc2Oc2ccc(F)cc2C(=O)N(C(C)C)C(C)C)C3)OC1)c1ccccc1` (stereo partly drawn) [Example 232, 5-Fluoro-N,N-diisopropyl-2-((4-(7-(((2S,5R)-5-(N′-methylphenylsulfonoamidimidamido)tetrahydro-2H-pyran-2-yl)methyl)-2,7-diazaspiro[3.5]nonan-2-yl)pyrimidin-5-yl)oxy)benzamide] in this work.

An IC50 of 100 to 1000 nM was found for `CC[S@@](=N)(=O)N[C@@H]1CC[C@@H](CN2CCC3(CC2)CN(c2ncncc2Oc2ccc(F)cc2C(=O)N(C(C)C)C(C)C)C3)OC1` (single isomer, unassigned) [Example 226] in this work.

In the case of `Cc1nc(S(=O)(=O)N[C@@H]2CC[C@@H](CN3CCC4(CC3)CN(c3ncncc3Oc3ccc(F)cc3C(=O)N(C(C)C)[C@@H]3CCOC3)C4)OC2)cs1` [Example 133, 5-Fluoro-N-isopropyl-2-((4-(7-(((2S,5R)-5-((2-methylthiazole)-4-sulfonamido)tetrahydro-2H-pyran-2-yl)methyl)-2,7-diazaspiro[3.5]nonan-2-yl)pyrimidin-5-yl)oxy)-N-((R)-tetrahydrofuran-3-yl)benzamide], the IC50 is reported as < 100 nM.

In the case of `CC[S@](=N)(=O)N[C@@H]1CC[C@@H](CN2CCC3(CC2)CN(c2ncncc2Oc2ccc(F)cc2C(=O)N(C(C)C)C(C)C)C3)OC1` (single isomer, unassigned) [Example 227], the IC50 is reported as < 100 nM.

In the case of `CC(C)N(CC(F)F)C(=O)c1cc(F)ccc1Oc1cncnc1N1CC2(CCN(C[C@@H]3CC[C@@H](NS(=O)(=O)N4CC(OCc5ccccc5)C4)CO3)CC2)C1` [Example 236, 2-((4-(7-(((2S,5R)-5-((3-(Benzyloxy)azetidine)-1-sulfonamido)tetrahydro-2H-pyran-2-yl)methyl)-2,7-diazaspiro[3.5]nonan-2-yl)pyrimidin-5-yl)oxy)-N-(2,2-difluoroethyl)-5-fluoro-N-isopropylbenzamide], the IC50 is reported as < 100 nM.

With `CC(C)N(C(=O)c1cc(F)ccc1Oc1cncnc1N1CC2(CCN(C[C@@H]3CC[C@@H](N[S@@](=N)(=O)c4ccccc4)CO3)CC2)C1)C(C)C` (single isomer, unassigned) [Example 229] the IC50 was < 100 nM.

With `CCN(C(=O)c1cc(F)ccc1Oc1cncnc1N1CC2(CCN(C[C@@H]3CC[C@@H](NS(=O)(=O)C4CCOCC4)CO3)CC2)C1)C(C)C` [Example 67, N-Ethyl-5-fluoro-N-isopropyl-2-((4-(7-(((2S,5R)-5-((tetrahydro-2H-pyran)-4-sulfonamido)tetrahydro-2H-pyran-2-yl)methyl)-2,7-diazaspiro[3.5]nonan-2-yl)pyrimidin-5-yl)oxy)benzamide] the IC50 was < 100 nM.
